Patent US11780849B2, “Imino sulfanone inhibitors of ENPP1” (Volastra Therapeutics, Inc., priority 2020, dated 2023)
Like-named read-outs stand apart in the source and are kept apart here. One block for each molecule: values may come before it.

Columns and labels:
[1] = target: T1, ENPP-1 ECD (Homo sapiens (Human), UniProt P22413); test: Assay 1: inhibition of ENPP1 hydrolysis of 2′,3′-cGAMP (AMP-Glo, […] enzyme)
Method: Assay 1: Test compounds were plated in a 3× dilution scheme in a 384 well plate. […] AMP Detection solution (100 μL) was added to each well, the plate centrifuged and incubated for 60 min.

[2] = target: T1, ENPP-1 ECD; test: Assay 2: inhibition of ENPP1 hydrolysis of 2′,3′-cGAMP (AMP-Glo, […] enzyme)
Method: Assay 2: Compared to the conditions in Assay 1, this assay has a larger dynamic range and ensures the system is under steady-state conditions by reducing the enzyme concentration in the assay.
Test compounds were plated in a 3× dilution scheme in a 384 well plate. […] AMP Detection solution (10 μL) was added to each well, the plate centrifuged and incubated for 60 min.

[3] = Assay 1 (IC50), inhibition of ENPP1 hydrolysis of 2′,3′-cGAMP, no unit in Table 18 (Table 17 legend for this assay uses nM)
[4] = read-out: Assay 1 (IC50), ENPP1 hydrolysis of 2′,3′-cGAMP, AMP-Glo
[5] = Assay 2 (KI), ENPP1 hydrolysis of 2′,3′-cGAMP, AMP-Glo, […] ENPP-1, 24 μM cGAMP
[6] = Assay 2 (KI), inhibition of ENPP1 hydrolysis of 2′,3′-cGAMP, no unit in Table 18 (Table 17 legend for this assay uses nM)
[7] = Assay 1 (IC50), ENPP1 hydrolysis of 2′,3′-cGAMP, AMP-Glo
[8] = read-out: Assay 1 (IC50), inhibition of ENPP1 hydrolysis of 2′,3′-cGAMP, no unit in Table 18 (Table 17 legend for this assay uses nM)
[9] = read-out: Assay 2 (KI), ENPP1 hydrolysis of 2′,3′-cGAMP, AMP-Glo, […] ENPP-1, 24 μM cGAMP
[10] = read-out: Assay 2 (KI), inhibition of ENPP1 hydrolysis of 2′,3′-cGAMP, no unit in Table 18 (Table 17 legend for this assay uses nM)

T1 sequence (P22413 98-925): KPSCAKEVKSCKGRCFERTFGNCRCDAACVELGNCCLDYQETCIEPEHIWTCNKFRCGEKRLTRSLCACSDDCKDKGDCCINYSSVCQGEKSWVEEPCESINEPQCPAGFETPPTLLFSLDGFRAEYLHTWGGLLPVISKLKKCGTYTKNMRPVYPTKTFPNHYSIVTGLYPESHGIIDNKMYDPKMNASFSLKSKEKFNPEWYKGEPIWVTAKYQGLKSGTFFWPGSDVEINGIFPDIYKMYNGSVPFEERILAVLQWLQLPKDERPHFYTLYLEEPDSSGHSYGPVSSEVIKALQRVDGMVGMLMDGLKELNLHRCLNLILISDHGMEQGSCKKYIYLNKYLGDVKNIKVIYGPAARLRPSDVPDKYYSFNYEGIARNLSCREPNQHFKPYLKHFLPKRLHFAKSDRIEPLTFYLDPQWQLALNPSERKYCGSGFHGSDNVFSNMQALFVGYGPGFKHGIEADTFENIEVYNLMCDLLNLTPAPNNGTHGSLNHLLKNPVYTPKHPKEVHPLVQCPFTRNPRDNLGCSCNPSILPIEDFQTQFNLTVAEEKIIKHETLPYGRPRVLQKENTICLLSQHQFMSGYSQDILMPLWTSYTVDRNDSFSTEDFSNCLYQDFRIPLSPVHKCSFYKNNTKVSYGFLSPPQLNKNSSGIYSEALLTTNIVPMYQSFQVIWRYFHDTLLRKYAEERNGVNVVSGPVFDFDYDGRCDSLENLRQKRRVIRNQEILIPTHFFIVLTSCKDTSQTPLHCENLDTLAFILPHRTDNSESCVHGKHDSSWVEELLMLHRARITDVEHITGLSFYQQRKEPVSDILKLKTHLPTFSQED

IC50 [1, 3]: 3200 nM
IC50 [1, 4]: > 1000 nM
Ki [2, 5]: > 300 nM
Ki [2, 6]: 330 nM
Structure (SMILES): COc1cc2nccc(Oc3ccc([S@](C)(=N)=O)cc3)c2cc1OC [Compound 1R, (R)-(4-((6,7-dimethoxyquinolin-4-yl)oxy)phenyl)(imino)(methyl)-λ^6-sulfanone]

IC50 [1, 3]: > 30000 nM
IC50 [1, 4]: > 1000 nM
Structure (SMILES): COc1ccc2c(C(=O)N3CCS(=N)(=O)CC3)ccnc2c1 [Compound 6, 1-imino-4-(7-methoxyquinoline-4-carbonyl)-1λ^6-thiomorpholin-1-one]

IC50 [1, 7]: 10 to 1000 nM
IC50 [1, 3]: 23 nM
Ki [2, 5]: < 3 nM
Ki [2, 6]: 2.8 nM
Structure (SMILES): COc1ccc2c(Oc3ccc(S(C)(=N)=O)c(F)c3)ccnc2c1 (centres unmarked) [Compound 10, (2-fluoro-4-((7-methoxyquinolin-4-yl)oxy)phenyl)(imino)(methyl)-λ^6-sulfanone]

IC50 [1, 7]: 10 to 1000 nM
IC50 [1, 3]: 110 nM
Ki [2, 5]: 3 to 300 nM
Ki [2, 6]: 15 nM
Structure (SMILES): COc1cc2ncnc(OCc3ccc(S(C)(=N)=O)cc3)c2cc1OC (centres unmarked) [Compound 14, (4-(((6,7-dimethoxyquinazolin-4-yl)oxy)methyl)phenyl)(imino)(methyl)-λ^6-sulfanone]

IC50 [1, 7]: 10 to 1000 nM
IC50 [1, 3]: 180 nM
Ki [2, 5]: 3 to 300 nM
Ki [2, 6]: 24 nM
Structure (SMILES): COc1cc2ncnc(Oc3ccc(S(C)(=N)=O)cc3)c2cc1OC (centres unmarked) [Compound 18, (4-((6,7-dimethoxyquinazolin-4-yl)oxy)phenyl)(imino)(methyl)-λ^6-sulfanone]

IC50 [1, 3]: 1200 nM
IC50 [1, 4]: > 1000 nM
Ki [2, 5]: > 300 nM
Ki [2, 6]: 310 nM
Structure (SMILES): CS(=N)(=O)c1ccc(Oc2cnnc3ccccc23)cc1 (centres unmarked) [Compound 22, (4-(cinnolin-4-yloxy)phenyl)(imino)(methyl)-λ^6-sulfanone]

IC50 [1, 3]: 8800 nM
IC50 [1, 4]: > 1000 nM
Structure (SMILES): COc1ccc2c(CC(=O)N3CCS(=N)(=O)CC3)ccnc2c1 [Compound 26, 1-imino-4-[2-(7-methoxyquinolin-4-yl)acetyl]-1λ^6-thiomorpholin-1-one]

IC50 [1, 4]: > 1000 nM
IC50 [1, 8]: 1900 nM
Ki [2, 9]: > 300 nM
Ki [2, 10]: 350 nM
Structure (SMILES): COc1cc2ncc(C#N)c(Oc3ccc([S@](C)(=N)=O)cc3)c2cc1F [Compound 44b]

IC50 [1, 7]: 10 to 1000 nM
IC50 [1, 3]: 180 nM
Structure (SMILES): COc1ccc2ncc(C#N)c(Oc3ccc(S(C)(=N)=O)cc3)c2c1 (centres unmarked) [Compound 47, 6-methoxy-4-(4-(S-methylsulfonimidoyl)phenoxy)quinoline-3-carbonitrile]

IC50 [1, 3]: 2600 nM
IC50 [1, 4]: > 1000 nM
Structure (SMILES): Cc1ccc2ncc(C#N)c(Oc3ccc(S(C)(=N)=O)cc3)c2c1 (centres unmarked) [Compound 50, 6-methyl-4-(4-(S-methylsulfonimidoyl)phenoxy)quinoline-3-carbonitrile]

IC50 [1, 4]: 10 to 1000 nM
IC50 [1, 8]: 45 nM
Ki [2, 9]: 3 to 300 nM
Ki [2, 10]: 7.3 nM
Structure (SMILES): COc1ccc2c(N3CCC4(CC3)CCN([S@@](C)(=N)=O)C4)ccnc2c1 [Compound 55b]

IC50 [1, 7]: 10 to 1000 nM
IC50 [1, 3]: 51 nM
Structure (SMILES): COc1cccc2c(Oc3ccc(S(C)(=N)=O)cc3)c(C#N)cnc12 (centres unmarked) [Compound 58, 8-methoxy-4-(4-(S-methylsulfonimidoyl)phenoxy)quinoline-3-carbonitrile]

IC50 [1, 4]: 10 to 1000 nM
IC50 [1, 8]: 520 nM
Ki [2, 9]: 3 to 300 nM
Ki [2, 10]: 93 nM
Structure (SMILES): COc1ccc2c(Oc3ccc([S@](=N)(=O)C4CC4)cc3)ccnc2c1 [Compound 60b]

IC50 [1, 7]: 10 to 1000 nM
IC50 [1, 3]: 55 nM
Ki [2, 5]: 3 to 300 nM
Ki [2, 6]: 10 nM
Structure (SMILES): COc1ccc2c(N3CCC(CCS(C)(=N)=O)CC3)ccnc2c1 (centres unmarked) [Compound 69, imino(2-(1-(7-methoxyquinolin-4-yl)piperidin-4-yl)ethyl)(methyl)-λ^6-sulfanone]

IC50 [1, 3]: 23000 nM
IC50 [1, 4]: > 1000 nM
Structure (SMILES): COc1cnc2c(Oc3ccc(S(C)(=N)=O)cc3)ccnc2c1 (centres unmarked) [Compound 76, imino(4-((7-methoxy-1,5-naphthyridin-4-yl)oxy)phenyl)(methyl)-λ^6-sulfanone]

IC50 [1, 7]: 10 to 1000 nM
IC50 [1, 3]: 57 nM
Structure (SMILES): COc1cc2nccc(Oc3ccc(S(C)(=N)=O)cc3)c2cn1 (centres unmarked) [Compound 77, imino(4-((7-methoxy-1,6-naphthyridin-4-yl)oxy)phenyl)(methyl)-λ^6-sulfanone]

IC50 [1, 7]: 10 to 1000 nM
IC50 [1, 3]: 920 nM
Structure (SMILES): COc1ccc2c(-c3ccc(CS(C)(=N)=O)cc3)ccnc2c1 (centres unmarked) [Compound 88, imino(4-(7-methoxyquinolin-4-yl)benzyl)(methyl)-λ^6-sulfanone]

IC50 [1, 7]: 10 to 1000 nM
IC50 [1, 3]: 310 nM
Structure (SMILES): COc1ccc2c(Oc3ccc(S(C)(=N)=O)cc3)ccnc2c1F (centres unmarked) [Compound 128, {4-[(8-fluoro-7-methoxyquinolin-4-yl)oxy]phenyl}(imino)methyl-λ^6-sulfanone]

IC50 [1, 3]: 8100 nM
Structure (SMILES): COc1ccc2nccc(Oc3ccc(S(C)(=N)=O)cc3)c2n1 (centres unmarked) [Compound 130, imino({4-[(6-methoxy-1,5-naphthyridin-4-yl)oxy]phenyl})methyl-λ^6-sulfanone]

IC50 [1, 3]: > 30000 nM
IC50 [1, 4]: > 1000 nM
Structure (SMILES): CS(=N)(=O)c1ccc(Oc2c(C#N)cnc3cc(F)ccc23)cc1 (centres unmarked) [Compound 131, 7-fluoro-4-{4-[imino(methyl)oxo-λ^6-sulfanyl]phenoxy}quinoline-3-carbonitrile]

IC50 [1, 3]: 1100 nM
Structure (SMILES): COc1cccc2c(OCc3ccc(S(C)(=N)=O)cc3)ccnc12 (centres unmarked) [Compound 134, imino(4-{[(8-methoxyquinolin-4-yl)oxy]methyl}phenyl)methyl-λ^6-sulfanone]

IC50 [1, 3]: 1800 nM
IC50 [1, 4]: > 1000 nM
Structure (SMILES): COc1cccc2c(-c3ccc(CCS(C)(=N)=O)cc3)ncnc12 (centres unmarked) [Compound 154, imino({2-[4-(8-methoxyquinazolin-4-yl)phenyl]ethyl})methyl-λ^6-sulfanone]

IC50 [1, 3]: 14000 nM
IC50 [1, 4]: > 1000 nM
Structure (SMILES): CS(=N)(=O)Cc1ccc(-c2ccnc3ccccc23)cc1 (centres unmarked) [Compound 155, imino(methyl){[4-(quinolin-4-yl)phenyl]methyl}-λ^6-sulfanone]

Ki [2, 6]: 110 nM
Structure (SMILES): COc1cccc2c(N3CCC4(CC3)CCN4S(C)(=N)=O)ncnc12 (centres unmarked) [Compound 214, imino[7-(8-methoxyquinazolin-4-yl)-1,7-diazaspiro[3.5]nonan-1-yl]methyl-λ^6-sulfanone]

Ki [2, 6]: 3.8 nM
Structure (SMILES): COc1cccc2c(N3CCC4(CC3)CCN(S(C)(=N)=O)C4)ncnc12 (centres unmarked) [Compound 215, imino[8-(8-methoxyquinazolin-4-yl)-2,8-diazaspiro[4.5]decan-2-yl]methyl-λ^6-sulfanone]

Ki [2, 6]: 5.5 nM
Structure (SMILES): COc1cc2ncnc(N3CCC4(CCN(S(C)(=N)=O)C4)C3)c2cc1OC (centres unmarked) [Compound 216, [7-(6,7-dimethoxyquinazolin-4-yl)-2,7-diazaspiro[4.4]nonan-2-yl](imino)methyl-λ^6-sulfanone]

Ki [2, 10]: 1.5 nM
Structure (SMILES): COc1cc2nccc(N3CCC4(CC3)CCN([S@](=N)(=O)C3CC3)C4)c2cc1F [Compound 218b]

Ki [2, 6]: 0.091 nM
Structure (SMILES): COc1cc2nncc(N3CCC4(CC3)CCN(S(C)(=N)=O)C4)c2cc1Cl (centres unmarked) [Compound 219, [8-(6-chloro-7-methoxycinnolin-4-yl)-2,8-diazaspiro[4.5]decan-2-yl](imino)methyl-λ^6-sulfanone]

Ki [2, 10]: 2 nM
Structure (SMILES): COc1cc2nncc(N3CCC4(CC3)CCN([S@@](C)(=N)=O)C4)c2cc1Cl [Compound 219b]

Ki [2, 10]: 1.3 nM
Structure (SMILES): COc1cccc2c(N3CC4(CCN([S@](C)(=N)=O)C4)C3)c(C#N)cnc12 [Compound 222b]

Ki [2, 10]: 39 nM
Structure (SMILES): COc1cc2nccc(OC[C@@H]3CCN([S@@](C)(=N)=O)C3)c2cc1F [Compound 229a]

Ki [2, 10]: 11 nM
Structure (SMILES): COc1cc2nccc(OC[C@H]3CCN([S@](C)(=N)=O)C3)c2cc1F [Compound 230a]

Ki [2, 6]: 3.3 nM
Structure (SMILES): COc1ccc2c(COc3cccc(S(C)(=N)=O)c3)ccnc2c1 (centres unmarked) [Compound 232, imino({3-[(7-methoxyquinolin-4-yl)methoxy]phenyl})methyl-λ^6-sulfanone]

Ki [2, 6]: > 500 nM
Structure (SMILES): COc1ccc2c(-n3cc4c(n3)CCN(S(C)(=N)=O)C4)ccnc2c1 (centres unmarked) [Compound 233, imino[2-(7-methoxyquinolin-4-yl)-2H,4H,5H,6H,7H-pyrazolo[4,3-c]pyridin-5-yl]methyl-λ^6-sulfanone]

Ki [2, 6]: > 500 nM
Structure (SMILES): COc1ccc2c(-n3cc(CCS(C)(=N)=O)cn3)ccnc2c1 (centres unmarked) [Compound 234, imino({2-[1-(7-methoxyquinolin-4-yl)-1H-pyrazol-4-yl]ethyl})methyl-λ^6-sulfanone]

Ki [2, 6]: 8 nM
Structure (SMILES): COc1ccc2c(OC3CCN(S(C)(=N)=O)CC3)ccnc2c1 (centres unmarked) [Compound 235, imino({4-[(7-methoxyquinolin-4-yl)oxy]piperidin-1-yl})methyl-λ^6-sulfanone]

Ki [2, 10]: 2.4 nM
Structure (SMILES): COc1cc2ncnc(N3CC4(CC(C[S@@](C)(=N)=O)C4)C3)c2cc1OC [Compound 237a]

Ki [2, 10]: 13 nM
Structure (SMILES): COc1cccc2c(N3CC[C@H](C[S@](C)(=N)=O)C3)ncnc12 [Compound 238b]

Ki [2, 10]: 83 nM
Structure (SMILES): COc1cccc2c(N3CC[C@@H](C[S@@](C)(=N)=O)C3)ncnc12 [Compound 239b]

Ki [2, 6]: 4.3 nM
Structure (SMILES): COc1ccc2c(O[C@H]3CC[C@H](S(C)(=N)=O)CC3)ccnc2c1 (some centres unmarked) [Compound 243, imino(methyl)[(1r,4r)-4-[(7-methoxyquinolin-4-yl)oxy]cyclohexyl]-λ^6-sulfanone]

Ki [2, 6]: 19 nM
Structure (SMILES): COc1cccc2c(N3CC=C(CS(C)(=N)=O)CC3)ncnc12 (centres unmarked) [Compound 246, imino({[1-(8-methoxyquinazolin-4-yl)-1,2,3,6-tetrahydropyridin-4-yl]methyl})methyl-λ^6-sulfanone]
